According to ChEMBL document CHEMBL3400015, “Tertiary amides of Salinomycin: A new group of antibacterial agents against Bacillus anthracis and methicillin-resistant Staphylococcus epidermidis” (Bioorg Med Chem Lett, 2015):

Tests used:
Staphylococcus aureus [1] = experiment: Antimicrobial activity against Staphylococcus aureus ATCC 25923 after 18 hrs by twofold serial broth dilution method; assay type: functional; conditions: ATCC 25923, 18 h
Staphylococcus aureus [2] = experiment: Antimicrobial activity against Staphylococcus aureus […] after 18 hrs by twofold serial broth dilution method; assay type: functional
[3] = tested on: Staphylococcus epidermidis; experiment: Antimicrobial activity against Staphylococcus epidermidis ATCC 35984 after 18 hrs by twofold serial broth dilution method; assay type: functional; conditions: ATCC 35984, 18 h
Escherichia coli [4] = experiment: Antimicrobial activity against Escherichia coli ATCC 10538 after 18 hrs by twofold serial broth dilution method; assay type: functional; conditions: ATCC 10538, 18 h
Escherichia coli [5] = experiment: Antimicrobial activity against Escherichia coli ATCC 25922 after 18 hrs by twofold serial broth dilution method; assay type: functional; conditions: ATCC 25922, 18 h
Escherichia coli [6] = experiment: Antimicrobial activity against Escherichia coli NCTC 8196 after 18 hrs by twofold serial broth dilution method; assay type: functional; conditions: NCTC 8196, 18 h
Pseudomonas aeruginosa [7] = experiment: Antimicrobial activity against Pseudomonas aeruginosa ATCC 15442 after 18 hrs by twofold serial broth dilution method; assay type: functional; conditions: ATCC 15442, 18 h
Pseudomonas aeruginosa [8] = experiment: Antimicrobial activity against Pseudomonas aeruginosa NCTC 6749 after 18 hrs by twofold serial broth dilution method; assay type: functional; conditions: NCTC 6749, 18 h
Pseudomonas aeruginosa [9] = experiment: Antimicrobial activity against Pseudomonas aeruginosa ATCC 27853 after 18 hrs by twofold serial broth dilution method; assay type: functional; conditions: ATCC 27853, 18 h
Bacillus anthracis = experiment: Antimicrobial activity against Bacillus anthracis 34F2 after 18 hrs by twofold serial broth dilution method; assay type: functional; conditions: 34F2, 18 h
Staphylococcus aureus [10] = experiment: Bactericidal activity against Staphylococcus aureus NCTC 4163 after 24 hrs; assay type: functional; conditions: NCTC 4163, 24 h, read-out: MBC99.9
Staphylococcus aureus [11] = experiment: Bactericidal activity against Staphylococcus aureus ATCC 6538 after 24 hrs; assay type: functional; conditions: ATCC 6538, 24 h, read-out: MBC99.9
Staphylococcus aureus [12] = experiment: Bactericidal activity against Staphylococcus aureus […] after 24 hrs; assay type: functional; conditions: read-out: MBC99.9
[13] = tested on: Staphylococcus epidermidis; experiment: Bactericidal activity against Staphylococcus epidermidis ATCC 12228 after 24 hrs; assay type: functional; conditions: ATCC 12228, 24 h, read-out: MBC99.9
[14] = tested on: Staphylococcus epidermidis; experiment: Bactericidal activity against Staphylococcus epidermidis ATCC 35984 after 24 hrs; assay type: functional; conditions: ATCC 35984, 24 h, read-out: MBC99.9
Escherichia coli [15] = experiment: Bactericidal activity against Escherichia coli ATCC 10538 after 24 hrs; assay type: functional; conditions: ATCC 10538, 24 h, read-out: MBC99.9
Escherichia coli [16] = experiment: Bactericidal activity against Escherichia coli ATCC 25922 after 24 hrs; assay type: functional; conditions: ATCC 25922, 24 h, read-out: MBC99.9
Escherichia coli [17] = experiment: Bactericidal activity against Escherichia coli NCTC 8196 after 24 hrs; assay type: functional; conditions: NCTC 8196, 24 h, read-out: MBC99.9
Pseudomonas aeruginosa [18] = experiment: Bactericidal activity against Pseudomonas aeruginosa ATCC 15442 after 24 hrs; assay type: functional; conditions: ATCC 15442, 24 h, read-out: MBC99.9
Pseudomonas aeruginosa [19] = experiment: Bactericidal activity against Pseudomonas aeruginosa NCTC 6749 after 24 hrs; assay type: functional; conditions: NCTC 6749, 24 h, read-out: MBC99.9
Pseudomonas aeruginosa [20] = experiment: Bactericidal activity against Pseudomonas aeruginosa ATCC 27853 after 24 hrs; assay type: functional; conditions: ATCC 27853, 24 h, read-out: MBC99.9
[21] = tested on: Staphylococcus epidermidis; experiment: Antimicrobial activity against methicillin-resistant Staphylococcus epidermidis isolate 403/10 after 18 hrs by twofold serial broth dilution method; assay type: functional; conditions: isolate 403/10, 18 h
[22] = tested on: Staphylococcus epidermidis; experiment: Antimicrobial activity against methicillin-resistant Staphylococcus epidermidis isolate 407/10 after 18 hrs by twofold serial broth dilution method; assay type: functional; conditions: isolate 407/10, 18 h
[23] = tested on: Staphylococcus epidermidis; experiment: Antimicrobial activity against methicillin-resistant Staphylococcus epidermidis isolate 422/10 after 18 hrs by twofold serial broth dilution method; assay type: functional; conditions: isolate 422/10, 18 h
[24] = tested on: Staphylococcus epidermidis; experiment: Antimicrobial activity against methicillin-resistant Staphylococcus epidermidis isolate 424/10 after 18 hrs by twofold serial broth dilution method; assay type: functional; conditions: isolate 424/10, 18 h
[25] = tested on: Staphylococcus epidermidis; experiment: Antimicrobial activity against methicillin-resistant Staphylococcus epidermidis isolate 454/11 after 18 hrs by twofold serial broth dilution method; assay type: functional; conditions: isolate 454/11, 18 h
[26] = tested on: Staphylococcus epidermidis; experiment: Antimicrobial activity against methicillin-resistant Staphylococcus epidermidis isolate 455/11 after 18 hrs by twofold serial broth dilution method; assay type: functional; conditions: isolate 455/11, 18 h
[27] = tested on: Staphylococcus epidermidis; experiment: Antimicrobial activity against methicillin-resistant Staphylococcus epidermidis isolate 457/11 after 18 hrs by twofold serial broth dilution method; assay type: functional; conditions: isolate 457/11, 18 h
[28] = tested on: Staphylococcus epidermidis; experiment: Antimicrobial activity against methicillin-resistant Staphylococcus epidermidis isolate 458/11 after 18 hrs by twofold serial broth dilution method; assay type: functional; conditions: isolate 458/11, 18 h
[29] = tested on: Staphylococcus epidermidis; experiment: Antimicrobial activity against methicillin-resistant Staphylococcus epidermidis isolate 459/11 after 18 hrs by twofold serial broth dilution method; assay type: functional; conditions: isolate 459/11, 18 h
[30] = tested on: Staphylococcus epidermidis; experiment: Antimicrobial activity against methicillin-resistant Staphylococcus epidermidis isolate 460/11 after 18 hrs by twofold serial broth dilution method; assay type: functional; conditions: isolate 460/11, 18 h
[31] = tested on: Staphylococcus epidermidis; experiment: Antimicrobial activity against methicillin-resistant Staphylococcus epidermidis isolate 469/11 after 18 hrs by twofold serial broth dilution method; assay type: functional; conditions: isolate 469/11, 18 h
[32] = tested on: Staphylococcus epidermidis; experiment: Antimicrobial activity against methicillin-resistant Staphylococcus epidermidis isolate 470/11 after 18 hrs by twofold serial broth dilution method; assay type: functional; conditions: isolate 470/11, 18 h
[33] = tested on: Staphylococcus epidermidis; experiment: Bactericidal activity against methicillin-resistant Staphylococcus epidermidis isolate 403/10 after 24 hrs; assay type: functional; conditions: isolate 403/10, 24 h, read-out: MBC99.9
[34] = tested on: Staphylococcus epidermidis; experiment: Bactericidal activity against methicillin-resistant Staphylococcus epidermidis isolate 404/10 after 24 hrs; assay type: functional; conditions: isolate 404/10, 24 h, read-out: MBC99.9
[35] = tested on: Staphylococcus epidermidis; experiment: Bactericidal activity against methicillin-resistant Staphylococcus epidermidis isolate 407/10 after 24 hrs; assay type: functional; conditions: isolate 407/10, 24 h, read-out: MBC99.9
[36] = tested on: Staphylococcus epidermidis; experiment: Bactericidal activity against methicillin-resistant Staphylococcus epidermidis isolate 424/10 after 24 hrs; assay type: functional; conditions: isolate 424/10, 24 h, read-out: MBC99.9
[37] = tested on: Staphylococcus epidermidis; experiment: Bactericidal activity against methicillin-resistant Staphylococcus epidermidis isolate 455/11 after 24 hrs; assay type: functional; conditions: isolate 455/11, 24 h, read-out: MBC99.9
[38] = tested on: Staphylococcus epidermidis; experiment: Bactericidal activity against methicillin-resistant Staphylococcus epidermidis isolate 458/11 after 24 hrs; assay type: functional; conditions: isolate 458/11, 24 h, read-out: MBC99.9
[39] = tested on: Staphylococcus epidermidis; experiment: Bactericidal activity against methicillin-resistant Staphylococcus epidermidis isolate 459/11 after 24 hrs; assay type: functional; conditions: isolate 459/11, 24 h, read-out: MBC99.9
[40] = tested on: Staphylococcus epidermidis; experiment: Bactericidal activity against methicillin-resistant Staphylococcus epidermidis isolate 460/11 after 24 hrs; assay type: functional; conditions: isolate 460/11, 24 h, read-out: MBC99.9
[41] = tested on: Staphylococcus epidermidis; experiment: Bactericidal activity against methicillin-resistant Staphylococcus epidermidis isolate 461/11 after 24 hrs; assay type: functional; conditions: isolate 461/11, 24 h, read-out: MBC99.9
Bacillus subtilis [42] = experiment: Genotoxicity in rec-positive Bacillus subtilis H17 at 2 ug/9 mm disc after 24 hrs by disc diffusion method; assay type: toxicity, organism-based
Bacillus subtilis [43] = experiment: Genotoxicity in rec-negative Bacillus subtilis M45 at 2 ug/9 mm disc after 24 hrs by disc diffusion method; assay type: toxicity, organism-based

CC[C@@H](C(=O)[C@@H](C)[C@@H](O)[C@H](C)[C@@H]1O[C@@H]([C@@H](CC)C(=O)N(Cc2ccccc2)Cc2ccccc2)CC[C@@H]1C)[C@H]1O[C@]2(C=C[C@@H](O)[C@]3(CC[C@@](C)([C@H]4CC[C@](O)(CC)[C@H](C)O4)O3)O2)[C@H](C)C[C@@H]1C
256 µg/mL: MBC (Staphylococcus aureus [10]) | MBC (Staphylococcus aureus [11]) | MBC [13] | MBC [35] | MBC [36] | MBC [37] | MBC [39]
21 mm: diameter of the inhibition zone (DIZ) (Bacillus subtilis [42])
> 256 µg/mL: MIC (Escherichia coli [4]) | MIC (Escherichia coli [5]) | MIC (Escherichia coli [6]) | MIC (Pseudomonas aeruginosa [7]) | MIC (Pseudomonas aeruginosa [8]) | MIC (Pseudomonas aeruginosa [9]) | MBC (Staphylococcus aureus [12]) | MBC (Escherichia coli [15]) | MBC (Escherichia coli [16]) | MBC (Escherichia coli [17]) | MBC (Pseudomonas aeruginosa [18]) | MBC (Pseudomonas aeruginosa [19]) | MBC (Pseudomonas aeruginosa [20]) | MBC [33] | MBC [34] | MBC [38] | MBC [40] | MBC [41]
20 mm: diameter of the inhibition zone (DIZ) (Bacillus subtilis [43])
16 µg/mL: MIC [21] | MIC [22] | MIC [23] | MIC [24] | MIC [27] | MIC [28] | MIC [29]
8 µg/mL: MIC (Staphylococcus aureus [1]) | MIC [3] | MIC [25]
128 µg/mL: MBC [14]
32 µg/mL: MIC (Staphylococcus aureus [2]) | MIC (Bacillus anthracis) | MIC [26] | MIC [30] | MIC [31] | MIC [32]

CC[C@@H](C(=O)[C@@H](C)[C@@H](O)[C@H](C)[C@@H]1O[C@@H]([C@@H](CC)C(=O)N2CCOCC2)CC[C@@H]1C)[C@H]1O[C@]2(C=C[C@@H](O)[C@]3(CC[C@@](C)([C@H]4CC[C@](O)(CC)[C@H](C)O4)O3)O2)[C@H](C)C[C@@H]1C
> 256 µg/mL: MBC (Staphylococcus aureus [10]) | MBC (Staphylococcus aureus [11]) | MBC (Staphylococcus aureus [12]) | MBC [13] | MBC [14] | MBC (Escherichia coli [15]) | MBC (Escherichia coli [16]) | MBC (Escherichia coli [17]) | MBC (Pseudomonas aeruginosa [18]) | MBC (Pseudomonas aeruginosa [19]) | MBC (Pseudomonas aeruginosa [20]) | MIC [22] | MIC [31] | MBC [33] | MBC [34] | MBC [35] | MBC [36] | MBC [37] | MBC [38] | MBC [39] | MBC [40] | MBC [41]
128 µg/mL: MIC (Staphylococcus aureus [1]) | MIC [3] | MIC (Pseudomonas aeruginosa [8]) | MIC (Bacillus anthracis) | MIC [25] | MIC [29]
256 µg/mL: MIC (Staphylococcus aureus [2]) | MIC (Escherichia coli [4]) | MIC (Escherichia coli [5]) | MIC (Escherichia coli [6]) | MIC (Pseudomonas aeruginosa [7]) | MIC (Pseudomonas aeruginosa [9]) | MIC [21] | MIC [23] | MIC [24] | MIC [26] | MIC [27] | MIC [28] | MIC [30] | MIC [32]
